The test system of one assay is Artemia salina. Briefly: Toxicity in Artemia salina larvae after 24 hrs by microscopic analysis. Type of assay: functional.
Assay [1] deals with HeLa. Briefly: cells. The settings on record: Homo sapiens, 48 h.
Description: Cytotoxicity against human HeLa cells after 48 hrs by MTT assay
Another assay deals with NCI-H460. The assay is described as follows: Cytotoxicity against human NCI-H460 cells after 48 hrs by MTT assay. It is filed as functional, cell-based. The settings on record: NCI-H460, 48 h.
The subject of another assay is HepG2. The assay is described as follows: Cytotoxicity against human HepG2 cells after 48 hrs by MTT assay. Type of assay: functional, cell-based. As to conditions: HepG2, 48 h.
In assay [2] the test system is HeLa. The assay is described as follows: Cell cycle arrest in human HeLa cells assessed as accumulation at G0/G1 phase at 40 ug/ml after 24 hrs by propidium iodide staining-based flow cytometry (reference value: 67.7%). Type of assay: functional.
For assay [3], the system named is HeLa. The assay is described as follows: Cell cycle arrest in human HeLa cells assessed as accumulation at G2/M phase at 20 ug/ml after 24 hrs by propidium iodide staining-based flow cytometry (reference value: 11.7%). It is filed as functional.
The test system of assay [4] is HeLa. Briefly: Cell cycle arrest in human HeLa cells assessed as accumulation at S phase at 10 ug/ml after 24 hrs by propidium iodide staining-based flow cytometry (reference value: 20.6%). Type of assay: functional.
Assay [5] relates to HeLa. The assay is described as follows: Cell cycle arrest in human HeLa cells assessed as accumulation at S phase at 40 ug/ml after 24 hrs by propidium iodide staining-based flow cytometry (reference value: 20.6%). It is filed as functional.
Assay [6] concerns HeLa. Briefly: Cell cycle arrest in human HeLa cells assessed as accumulation at G2/M phase at 40 ug/ml after 24 hrs by propidium iodide staining-based flow cytometry (reference value: 11.7%). It is filed as functional.
For assay [7], the system named is HeLa. The assay is described as follows: Cell cycle arrest in human HeLa cells assessed as accumulation at G2/M phase at 10 ug/ml after 24 hrs by propidium iodide staining-based flow cytometry (reference value: 11.7%). It is filed as functional.
Assay [8] has as its system HeLa. Briefly: Cell cycle arrest in human HeLa cells assessed as accumulation at S phase at 20 ug/ml after 24 hrs by propidium iodide staining-based flow cytometry (reference value: 20.6%). Type of assay: functional.
The subject of assay [9] is HeLa. The assay is described as follows: Cell cycle arrest in human HeLa cells assessed as accumulation at G0/G1 phase at 10 ug/ml after 24 hrs by propidium iodide staining-based flow cytometry (reference value: 67.7%). Type of assay: functional.
Assay [10] concerns HeLa. The assay is described as follows: Cell cycle arrest in human HeLa cells assessed as accumulation at G0/G1 phase at 20 ug/ml after 24 hrs by propidium iodide staining-based flow cytometry (reference value: 67.7%). It is filed as functional.

Converted amounts (≈) assume the structure as drawn. Where only a bound is given, the exact number is not on record here.

The compound `CC(=O)N1N=C([C@H]2CC[C@H]3[C@@H]4CCC5=CC(=O)C=C[C@]5(C)[C@H]4CC[C@]23C)CC1c1ccccc1` (some centres undefined) had an LC50 in the assay on Artemia salina of 18.9 µg/mL (≈ 41.5 µM). Besides, the IC50 in the assay on HeLa [1] was above 50 µg/mL.
Turning to `CC(=O)N1N=C([C@H]2CC[C@H]3[C@@H]4CCC5=CC(=O)C=C[C@]5(C)[C@H]4CC[C@]23C)CC1c1ccccc1Cl` (some centres undefined), the LC50 with Artemia salina was 21.7 µg/mL (≈ 44.2 µM). The IC50 with HeLa [1] was above 50 µg/mL.
Taken in the same sequence, the figures for `CC(=O)N1N=C([C@H]2CC[C@H]3[C@@H]4CCC5=CC(=O)C=C[C@]5(C)[C@H]4CC[C@]23C)CC1c1ccc(Cl)cc1` (some centres undefined) were 36.6 µg/mL (≈ 74.6 µM) and above 50 µg/mL.
In the assay with Artemia salina, `CC(=O)N1N=C([C@H]2CC[C@H]3[C@@H]4CCC5=CC(=O)C=C[C@]5(C)[C@H]4CC[C@]23C)CC1c1ccccc1[N+](=O)[O-]` (some centres undefined) had a median lethal concentration (LC50) of 30.2 µg/mL (≈ 60.2 µM). Besides, in the assay on HeLa [1], the IC50 is above 50 µg/mL.
`CC(=O)N1N=C([C@H]2CC[C@H]3[C@@H]4CCC5=CC(=O)C=C[C@]5(C)[C@H]4CC[C@]23C)CC1c1ccc([N+](=O)[O-])cc1` (some centres undefined) returned an LC50 in the assay with Artemia salina of 38.2 µg/mL (≈ 76.1 µM). This compound also had an IC50 with HeLa [1] above 50 µg/mL.
In the same order, the values of `COc1ccccc1C1CC([C@H]2CC[C@H]3[C@@H]4CCC5=CC(=O)C=C[C@]5(C)[C@H]4CC[C@]23C)=NN1C(C)=O` (some centres undefined) are 44.9 µg/mL (≈ 92.2 µM) and above 50 µg/mL.
In turn, `COc1ccc(C2CC([C@H]3CC[C@H]4[C@@H]5CCC6=CC(=O)C=C[C@]6(C)[C@H]5CC[C@]34C)=NN2C(C)=O)cc1` (some centres undefined) registered an LC50 with Artemia salina above 50 µg/mL. Besides, the IC50 in the assay on HeLa [1] was above 50 µg/mL.
In the case of `CC(=O)N1N=C([C@H]2CC[C@H]3[C@@H]4CCC5=C(Cl)C(=O)C=C[C@]5(C)[C@H]4CC[C@]23C)CC1c1ccccc1` (some centres undefined), the IC50 in the assay with NCI-H460 was determined as 13.1 µg/mL (≈ 26.7 µM); in the assay with HepG2, 17.3 µg/mL (≈ 35.2 µM); in the assay with HeLa [1] it was 13.7 µg/mL (≈ 27.9 µM). This compound registered an LC50 in the assay on Artemia salina of 4.99 µg/mL (≈ 10.2 µM).
As to `CC(=O)N1N=C([C@H]2CC[C@H]3[C@@H]4CCC5=C(Cl)C(=O)C=C[C@]5(C)[C@H]4CC[C@]23C)CC1c1ccc(Cl)cc1` (some centres undefined), the IC50 with NCI-H460 stood at 13.9 µg/mL (≈ 26.4 µM); in the assay with HepG2 it was 25.3 µg/mL (≈ 48.1 µM); in the assay with HeLa [1], 26.6 µg/mL (≈ 50.6 µM). Also, in the assay on Artemia salina, the LC50 turned out to be 10.4 µg/mL (≈ 19.8 µM).
In the same order, the values of `CC(=O)N1N=C([C@H]2CC[C@H]3[C@@H]4CCC5=C(Cl)C(=O)C=C[C@]5(C)[C@H]4CC[C@]23C)CC1c1ccccc1[N+](=O)[O-]` (some centres undefined) are 14.8 µg/mL (≈ 27.6 µM), above 50 µg/mL, above 50 µg/mL and 7.7 µg/mL (≈ 14.4 µM).
For the compound `CC(=O)N1N=C([C@H]2CC[C@H]3[C@@H]4CCC5=C(Cl)C(=O)C=C[C@]5(C)[C@H]4CC[C@]23C)CC1c1ccc([N+](=O)[O-])cc1` (some centres undefined), the IC50 with NCI-H460, in the assay with HepG2 and in the assay on HeLa [1] was above 50 µg/mL in each case. In the assay on Artemia salina, this compound registered an LC50 of 8.43 µg/mL (≈ 15.7 µM).
In the case of `CC(=O)[C@H]1CC[C@H]2[C@@H]3CCC4=C(Cl)C(=O)C=C[C@]4(C)[C@H]3CC[C@]12C`, the results for the IC50 with NCI-H460, in the assay with HepG2 and in the assay with HeLa [1] were 26.7 µg/mL (≈ 77 µM), above 50 µg/mL and above 50 µg/mL, respectively. This compound also returned an LC50 with Artemia salina above 100 µg/mL.
On to `CC(=O)N1N=C([C@H]2CC[C@H]3[C@@H]4CCC5=C(Cl)C(=O)C=C[C@]5(C)[C@H]4CC[C@]23C)CC1c1ccccc1Cl` (mixture of isomers), for which the Activity with HeLa [2] was 47.6%; in the assay on HeLa [3] it was 9.7%; in the assay on HeLa [4] it was 34.3%; with HeLa [5], 41.1%; in the assay on HeLa [6], 11.3%; in the assay on HeLa [7] it was 9.9%. Moreover, the figures for the Activity with HeLa [8], in the assay with HeLa [9] and in the assay with HeLa [10] were 38.9%, 55.8% and 51.4%, respectively. Also, the IC50 with NCI-H460 stood at 10.3 µg/mL; in the assay on HepG2 it was 24.3 µg/mL; in the assay on HeLa [1] it was 12.5 µg/mL. In the assay with Artemia salina, the LC50 is 5.65 µg/mL.
As for `COc1ccccc1C1CC([C@H]2CC[C@H]3[C@@H]4CCC5=C(Cl)C(=O)C=C[C@]5(C)[C@H]4CC[C@]23C)=NN1C(C)=O` (mixture of isomers), the IC50 in the assay with NCI-H460 is 15.7 µg/mL; with HepG2, 16.2 µg/mL; in the assay on HeLa [1], 15.3 µg/mL. For the same compound, the LC50 in the assay on Artemia salina is 9.92 µg/mL.
On to `COc1ccc(C2CC([C@H]3CC[C@H]4[C@@H]5CCC6=C(Cl)C(=O)C=C[C@]6(C)[C@H]5CC[C@]34C)=NN2C(C)=O)cc1` (mixture of isomers), for which the IC50 with NCI-H460 stood at 17.9 µg/mL; in the assay on HepG2, 16.9 µg/mL; with HeLa [1], 19.7 µg/mL. In addition, the LC50 in the assay with Artemia salina was 27.3 µg/mL.
As to `O=c1[nH]cc(F)c(=O)[nH]1` [FLUOROURACIL], the IC50 turned out to be 2.48 µg/mL (≈ 19.1 µM) in the assay with NCI-H460 and 0.887 µg/mL (≈ 6.82 µM) in the assay on HeLa [1].
For `CC(=O)[C@H]1CC[C@H]2[C@@H]3CCC4=CC(=O)CC[C@]4(C)[C@H]3CC[C@]12C` [PROGESTERONE], the LC50 in the assay with Artemia salina was above 100 µg/mL. The compound further registered an IC50 with HeLa [1] above 50 µg/mL.

These data come from ChEMBL document CHEMBL2434963, “Synthesis and cytotoxic activity of some novel steroidal C-17 pyrazolinyl derivatives” (Eur J Med Chem, 2013).
